In assay [1] the target is Intestinal-type alkaline phosphatase (Homo sapiens, UniProt P09923). The assay is described as follows: activation of human intestinal alkaline phosphatase – biochemical, dose response (AID 488873). Format: functional.
The next assay has as its target T1, Leucine aminopeptidase (Plasmodium falciparum 3D7, UniProt Q8IL11).
T1 sequence (Q8IL11 whole entry): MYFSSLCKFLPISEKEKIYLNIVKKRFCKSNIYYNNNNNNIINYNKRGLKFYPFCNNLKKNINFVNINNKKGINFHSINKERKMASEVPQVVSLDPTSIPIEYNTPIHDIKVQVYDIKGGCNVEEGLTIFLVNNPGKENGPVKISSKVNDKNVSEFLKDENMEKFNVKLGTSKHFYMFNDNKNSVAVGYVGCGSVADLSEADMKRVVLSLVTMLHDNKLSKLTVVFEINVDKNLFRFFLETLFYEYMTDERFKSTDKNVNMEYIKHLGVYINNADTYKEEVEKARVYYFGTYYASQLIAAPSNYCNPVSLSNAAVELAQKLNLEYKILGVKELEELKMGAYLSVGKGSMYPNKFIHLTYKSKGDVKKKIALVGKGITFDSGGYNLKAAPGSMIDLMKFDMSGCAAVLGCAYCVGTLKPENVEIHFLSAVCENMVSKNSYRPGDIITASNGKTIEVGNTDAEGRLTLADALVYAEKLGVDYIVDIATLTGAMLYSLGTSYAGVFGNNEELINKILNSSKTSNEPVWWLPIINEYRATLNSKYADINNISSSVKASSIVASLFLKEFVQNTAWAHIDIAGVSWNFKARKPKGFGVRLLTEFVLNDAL
The assay is described as follows: P. falciparum M17LAP inhibitors, primary screen, biochemical, fluorogenic H-Leu-NHMec substrate, 1536-well (AID 1619). Type of assay: functional.

For assay [2], the target named is T2, RNA-binding protein pos-1 (Caenorhabditis elegans, UniProt G5EF15).
T2 sequence (G5EF15 whole entry): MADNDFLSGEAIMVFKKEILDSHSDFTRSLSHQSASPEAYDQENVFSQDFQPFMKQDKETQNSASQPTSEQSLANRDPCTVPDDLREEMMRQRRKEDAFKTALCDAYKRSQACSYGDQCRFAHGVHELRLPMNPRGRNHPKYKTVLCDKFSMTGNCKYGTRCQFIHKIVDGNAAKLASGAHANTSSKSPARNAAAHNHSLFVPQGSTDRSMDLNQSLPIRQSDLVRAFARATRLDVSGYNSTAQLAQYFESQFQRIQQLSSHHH
The assay is described as follows: inhibitors of POS-1/mex-3 RNA binding, dose response, biochemical, fluorescence polarization (AID 1964).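 Further: purified POS-1 fused to maltose binding protein made in E. coli; potency of compounds blocking POS-1 binding to fluorescent RNA.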 For orientation: Polarisation of emitted light reports the rotation of a fluorescent probe.

The target of assay [3] is T3, Alkaline phosphatase, tissue-nonspecific isozyme (Homo sapiens, UniProt P05186).
T3 sequence (P05186 whole entry): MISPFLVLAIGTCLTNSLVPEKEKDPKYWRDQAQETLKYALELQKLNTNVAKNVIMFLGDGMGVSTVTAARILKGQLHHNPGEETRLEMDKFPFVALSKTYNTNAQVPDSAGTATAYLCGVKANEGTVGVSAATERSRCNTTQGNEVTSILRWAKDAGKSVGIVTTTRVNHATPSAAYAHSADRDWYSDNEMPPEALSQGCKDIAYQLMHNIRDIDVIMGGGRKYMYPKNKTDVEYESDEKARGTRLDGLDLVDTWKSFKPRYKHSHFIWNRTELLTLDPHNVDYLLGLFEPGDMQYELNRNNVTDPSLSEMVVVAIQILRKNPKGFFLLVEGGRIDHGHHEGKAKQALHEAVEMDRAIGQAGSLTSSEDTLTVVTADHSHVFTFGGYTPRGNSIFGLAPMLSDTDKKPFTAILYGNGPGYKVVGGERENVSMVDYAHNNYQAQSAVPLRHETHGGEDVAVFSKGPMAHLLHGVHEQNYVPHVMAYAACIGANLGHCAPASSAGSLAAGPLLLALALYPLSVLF
Nature of the assay: TNAP enzyme activators, dose response, selectivity assay for mouse IAP activator project, biochemical, TNAP isozyme, mouse IAP uHTS hits (AID 488880). Type of assay: functional.

Assay [4] concerns the target Intestinal-type alkaline phosphatase (Mus musculus, UniProt P24822). Nature of the assay: mouse intestinal alkaline phosphatase activators, dose response, biochemical, luminescence, uHTS hits (AID 488783). Type of assay: functional.
The target of assay [5] is T4, Zinc finger protein mex-5 (Caenorhabditis elegans, UniProt Q9XUB2).
T4 sequence (Q9XUB2 whole entry): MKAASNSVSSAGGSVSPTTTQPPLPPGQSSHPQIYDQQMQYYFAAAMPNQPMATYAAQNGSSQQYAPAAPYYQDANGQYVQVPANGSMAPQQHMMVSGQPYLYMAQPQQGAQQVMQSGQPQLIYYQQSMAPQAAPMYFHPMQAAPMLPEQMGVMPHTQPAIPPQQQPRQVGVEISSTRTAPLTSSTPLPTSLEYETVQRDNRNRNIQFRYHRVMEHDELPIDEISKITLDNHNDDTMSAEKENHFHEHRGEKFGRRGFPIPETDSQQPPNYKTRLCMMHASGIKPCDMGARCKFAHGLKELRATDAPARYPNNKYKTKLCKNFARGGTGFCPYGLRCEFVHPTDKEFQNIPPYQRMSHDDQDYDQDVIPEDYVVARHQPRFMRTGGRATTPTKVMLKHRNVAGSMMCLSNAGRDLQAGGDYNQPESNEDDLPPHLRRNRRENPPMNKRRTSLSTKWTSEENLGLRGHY
The assay is described as follows: MEX-5/TCR-2 RNA interaction inhibitors, dose response, biochemical, C. elegans, fluorescence polarization (AID 1960).

The target in the next assay is Troponin, cardiac muscle (Homo sapiens, UniProt P19429+P45379+P63316). The assay is described as follows: inhibitors of cardiac thin filament calcium sensitivity, dose response, biochemical, fluorescence, cardiac regulated thin filaments, triplicate IC50 (AID 504742). Format: protein-complex assay.
In assay [6] the target is Lysine-specific demethylase 4C (Homo sapiens, UniProt Q9H3R0). The assay is described as follows: GASC-1 (JMJD2C) histone demethylase inhibitors, dose response, biochemical, DELFIA europium, cherry-picked samples (AID 488835). Type of assay: functional.
The target of assay [7] is T5, Voltage-gated N-type calcium channel alpha-1B subunit/Amyloid beta A4 precursor protein-binding family A member 1 (Homo sapiens, UniProt Q00975+Q02410). Format: protein assay.
Assay [8] addresses T5, Voltage-gated N-type calcium channel alpha-1B subunit/Amyloid beta A4 precursor protein-binding family A member 1. Type of assay: protein assay. The source holds these as a separate data set.
In assay [9] the target is T6, Lysine-specific demethylase 4A (Homo sapiens, UniProt O75164).
T6 sequence (O75164 whole entry): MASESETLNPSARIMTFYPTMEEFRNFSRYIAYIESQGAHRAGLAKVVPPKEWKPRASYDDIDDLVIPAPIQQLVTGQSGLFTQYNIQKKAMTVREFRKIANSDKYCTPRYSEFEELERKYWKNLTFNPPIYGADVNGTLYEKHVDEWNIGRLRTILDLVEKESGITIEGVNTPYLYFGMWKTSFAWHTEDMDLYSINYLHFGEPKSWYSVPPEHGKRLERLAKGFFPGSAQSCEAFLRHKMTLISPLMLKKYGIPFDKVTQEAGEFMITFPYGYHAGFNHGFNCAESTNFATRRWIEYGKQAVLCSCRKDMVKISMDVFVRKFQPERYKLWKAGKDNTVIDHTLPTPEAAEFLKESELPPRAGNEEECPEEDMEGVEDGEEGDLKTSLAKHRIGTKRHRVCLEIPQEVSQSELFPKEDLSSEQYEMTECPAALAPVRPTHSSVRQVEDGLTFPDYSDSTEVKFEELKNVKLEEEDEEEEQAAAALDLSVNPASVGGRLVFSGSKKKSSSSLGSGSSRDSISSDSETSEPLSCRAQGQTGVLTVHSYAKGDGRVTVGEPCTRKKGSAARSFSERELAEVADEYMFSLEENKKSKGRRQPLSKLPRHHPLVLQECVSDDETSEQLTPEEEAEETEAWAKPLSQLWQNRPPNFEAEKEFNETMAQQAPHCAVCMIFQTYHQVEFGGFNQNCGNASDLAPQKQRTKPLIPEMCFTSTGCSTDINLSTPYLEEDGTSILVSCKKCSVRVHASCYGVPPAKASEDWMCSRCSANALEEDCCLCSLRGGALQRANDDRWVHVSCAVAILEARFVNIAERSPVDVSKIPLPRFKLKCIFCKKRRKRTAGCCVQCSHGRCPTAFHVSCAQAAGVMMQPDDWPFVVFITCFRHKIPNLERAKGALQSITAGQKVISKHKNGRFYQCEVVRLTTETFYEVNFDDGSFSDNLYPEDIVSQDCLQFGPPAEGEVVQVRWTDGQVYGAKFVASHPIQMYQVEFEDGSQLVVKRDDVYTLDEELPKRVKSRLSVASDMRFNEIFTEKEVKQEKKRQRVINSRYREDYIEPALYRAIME
The assay is described as follows: JMJD2A histone demethylase inhibitors, dose response, selectivity assay for GASC-1 inhibitor project, biochemical, DELFIA europium, cherry-picked samples (AID 488840).

The target of assay [10] is T5, Voltage-gated N-type calcium channel alpha-1B subunit/Amyloid beta A4 precursor protein-binding family A member 1. Nature of the assay: disruptors of Mint-PDZ/N-type channel peptide interaction – biochemical, HTRF, SAR follow-up (AID 2489). Format: functional. In general terms: In TR-FRET formats the signal depends on donor and acceptor labels being close together.

For assay [11] the target is unchanged. The assay is described as follows: disruptors of Mint-PDZ/N-type channel peptide interaction – biochemical, HTRF, set 2, SAR follow-up (AID 434980). Type of assay: functional.
The target of the next assay is NS3 (Hepatitis C virus, UniProt A3EZJ3). Nature of the assay: PubChem AID 2173. More on the design: species or system Hepacivirus hominis.
Assay [12] has as its target T7, Glutathione-S-transferase (Schistosoma japonicum, UniProt Q26513).
T7 sequence (Q26513 whole entry): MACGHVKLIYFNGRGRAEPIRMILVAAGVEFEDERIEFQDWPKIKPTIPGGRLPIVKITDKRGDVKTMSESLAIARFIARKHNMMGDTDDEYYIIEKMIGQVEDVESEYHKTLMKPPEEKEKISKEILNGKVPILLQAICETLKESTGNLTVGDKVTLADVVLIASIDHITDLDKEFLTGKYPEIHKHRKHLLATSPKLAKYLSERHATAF
The assay is described as follows: biotin-GST/anti-GST TR-FRET signal inhibitors, dose response, artefact control for Vif-APOBEC3G degradation inhibitor project, biochemical (AID 1117362). Format: functional.

Assay [13] has as its target T8, Dual specificity protein phosphatase 6 (Rattus norvegicus, UniProt Q64346).
T8 sequence (Q64346 whole entry): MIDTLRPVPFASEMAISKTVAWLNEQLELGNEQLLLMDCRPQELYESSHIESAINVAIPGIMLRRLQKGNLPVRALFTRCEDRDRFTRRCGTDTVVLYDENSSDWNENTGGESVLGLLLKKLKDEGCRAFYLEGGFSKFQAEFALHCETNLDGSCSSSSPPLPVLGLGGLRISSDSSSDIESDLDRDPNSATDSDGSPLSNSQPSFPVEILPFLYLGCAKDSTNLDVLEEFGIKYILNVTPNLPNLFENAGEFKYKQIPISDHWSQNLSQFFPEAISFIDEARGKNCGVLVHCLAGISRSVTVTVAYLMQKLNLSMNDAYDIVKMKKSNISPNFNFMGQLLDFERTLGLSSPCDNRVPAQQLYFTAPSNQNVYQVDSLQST
Nature of the assay: MKP-3 phosphatase inhibitors, primary screen, biochemical, rat enzyme, in vitro (AID 425).

Assay [14] addresses DNA (cytosine-5)-methyltransferase 1 (Homo sapiens, UniProt P26358). The assay is described as follows: DNMT1 methyltransferase inhibitors, confirmation, biochemical, fluorescent molecular beacon (AID 602386). Format: functional.
The target of assay [15] is T9, Dual specificity protein phosphatase 3 (Homo sapiens, UniProt P51452). Nature of the assay: VHR1 phosphatase inhibitors, biochemical (AID 1878).
The target of assay [16] is T9, Dual specificity protein phosphatase 3. Nature of the assay: VHR1 phosphatase inhibitors, primary screen, biochemical, absorbance, uHTS (AID 1654).
In assay [17] the target is Induced myeloid leukemia cell differentiation protein Mcl-1 (Homo sapiens, UniProt Q07820). Type of assay: functional.

Activity calls are given as the source filed them.

T5 sequence (Q00975 whole entry): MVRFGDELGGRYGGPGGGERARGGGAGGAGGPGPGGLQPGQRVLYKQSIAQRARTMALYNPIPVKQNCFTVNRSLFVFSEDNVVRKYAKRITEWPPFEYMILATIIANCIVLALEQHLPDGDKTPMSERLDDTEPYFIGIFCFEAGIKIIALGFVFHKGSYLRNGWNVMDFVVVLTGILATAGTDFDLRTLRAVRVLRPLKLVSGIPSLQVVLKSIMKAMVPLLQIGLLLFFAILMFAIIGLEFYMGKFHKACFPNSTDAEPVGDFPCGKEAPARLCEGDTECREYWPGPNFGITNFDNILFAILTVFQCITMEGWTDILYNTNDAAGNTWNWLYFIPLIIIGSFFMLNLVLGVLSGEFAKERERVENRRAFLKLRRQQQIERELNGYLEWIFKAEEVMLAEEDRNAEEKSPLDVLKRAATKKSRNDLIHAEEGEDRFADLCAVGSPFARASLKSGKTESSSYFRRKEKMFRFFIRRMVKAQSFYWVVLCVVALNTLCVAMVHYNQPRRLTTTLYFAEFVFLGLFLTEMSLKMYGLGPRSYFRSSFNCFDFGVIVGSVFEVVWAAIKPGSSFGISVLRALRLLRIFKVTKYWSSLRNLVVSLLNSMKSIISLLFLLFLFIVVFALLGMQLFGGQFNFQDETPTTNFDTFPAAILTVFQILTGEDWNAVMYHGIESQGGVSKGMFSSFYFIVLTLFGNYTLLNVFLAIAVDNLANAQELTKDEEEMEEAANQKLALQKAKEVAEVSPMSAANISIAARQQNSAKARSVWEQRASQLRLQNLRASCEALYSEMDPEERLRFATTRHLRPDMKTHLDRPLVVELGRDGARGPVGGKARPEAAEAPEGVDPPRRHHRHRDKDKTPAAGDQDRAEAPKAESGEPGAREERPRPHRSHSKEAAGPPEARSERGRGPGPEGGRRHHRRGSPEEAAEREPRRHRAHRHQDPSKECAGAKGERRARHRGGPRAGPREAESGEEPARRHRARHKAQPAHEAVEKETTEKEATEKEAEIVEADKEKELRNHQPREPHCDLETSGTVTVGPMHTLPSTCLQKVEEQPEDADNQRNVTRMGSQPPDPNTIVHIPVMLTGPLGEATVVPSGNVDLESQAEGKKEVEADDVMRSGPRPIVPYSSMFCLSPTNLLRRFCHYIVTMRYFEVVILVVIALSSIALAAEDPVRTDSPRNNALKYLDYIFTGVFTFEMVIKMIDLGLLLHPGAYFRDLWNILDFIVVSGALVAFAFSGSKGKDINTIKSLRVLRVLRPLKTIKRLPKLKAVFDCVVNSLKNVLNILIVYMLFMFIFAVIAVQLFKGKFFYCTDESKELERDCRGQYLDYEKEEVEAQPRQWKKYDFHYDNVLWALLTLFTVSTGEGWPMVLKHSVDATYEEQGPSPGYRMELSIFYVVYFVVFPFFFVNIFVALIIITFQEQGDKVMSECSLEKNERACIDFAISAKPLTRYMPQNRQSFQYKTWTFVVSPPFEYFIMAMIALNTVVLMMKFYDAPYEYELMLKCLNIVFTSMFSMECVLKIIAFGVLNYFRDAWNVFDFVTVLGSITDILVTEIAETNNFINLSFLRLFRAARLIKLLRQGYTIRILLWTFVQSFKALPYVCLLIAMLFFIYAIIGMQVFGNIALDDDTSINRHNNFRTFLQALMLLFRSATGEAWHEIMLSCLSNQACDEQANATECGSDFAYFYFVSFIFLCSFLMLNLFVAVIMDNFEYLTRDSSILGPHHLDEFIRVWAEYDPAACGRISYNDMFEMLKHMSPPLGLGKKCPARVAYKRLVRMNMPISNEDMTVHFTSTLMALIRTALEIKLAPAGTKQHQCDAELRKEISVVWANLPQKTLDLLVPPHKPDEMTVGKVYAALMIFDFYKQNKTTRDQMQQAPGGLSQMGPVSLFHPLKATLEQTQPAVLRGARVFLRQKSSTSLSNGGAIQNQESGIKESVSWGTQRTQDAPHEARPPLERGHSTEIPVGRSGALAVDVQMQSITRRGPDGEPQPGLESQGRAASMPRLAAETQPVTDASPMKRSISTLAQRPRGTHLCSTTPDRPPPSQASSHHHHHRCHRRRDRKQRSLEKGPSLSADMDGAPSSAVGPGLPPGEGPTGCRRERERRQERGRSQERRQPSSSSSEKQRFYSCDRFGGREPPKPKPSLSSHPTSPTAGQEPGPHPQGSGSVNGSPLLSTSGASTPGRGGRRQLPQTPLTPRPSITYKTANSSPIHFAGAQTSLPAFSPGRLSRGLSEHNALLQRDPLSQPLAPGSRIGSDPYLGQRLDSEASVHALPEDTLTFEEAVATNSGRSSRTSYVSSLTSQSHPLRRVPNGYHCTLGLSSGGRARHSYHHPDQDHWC
T5 sequence (Q02410 whole entry): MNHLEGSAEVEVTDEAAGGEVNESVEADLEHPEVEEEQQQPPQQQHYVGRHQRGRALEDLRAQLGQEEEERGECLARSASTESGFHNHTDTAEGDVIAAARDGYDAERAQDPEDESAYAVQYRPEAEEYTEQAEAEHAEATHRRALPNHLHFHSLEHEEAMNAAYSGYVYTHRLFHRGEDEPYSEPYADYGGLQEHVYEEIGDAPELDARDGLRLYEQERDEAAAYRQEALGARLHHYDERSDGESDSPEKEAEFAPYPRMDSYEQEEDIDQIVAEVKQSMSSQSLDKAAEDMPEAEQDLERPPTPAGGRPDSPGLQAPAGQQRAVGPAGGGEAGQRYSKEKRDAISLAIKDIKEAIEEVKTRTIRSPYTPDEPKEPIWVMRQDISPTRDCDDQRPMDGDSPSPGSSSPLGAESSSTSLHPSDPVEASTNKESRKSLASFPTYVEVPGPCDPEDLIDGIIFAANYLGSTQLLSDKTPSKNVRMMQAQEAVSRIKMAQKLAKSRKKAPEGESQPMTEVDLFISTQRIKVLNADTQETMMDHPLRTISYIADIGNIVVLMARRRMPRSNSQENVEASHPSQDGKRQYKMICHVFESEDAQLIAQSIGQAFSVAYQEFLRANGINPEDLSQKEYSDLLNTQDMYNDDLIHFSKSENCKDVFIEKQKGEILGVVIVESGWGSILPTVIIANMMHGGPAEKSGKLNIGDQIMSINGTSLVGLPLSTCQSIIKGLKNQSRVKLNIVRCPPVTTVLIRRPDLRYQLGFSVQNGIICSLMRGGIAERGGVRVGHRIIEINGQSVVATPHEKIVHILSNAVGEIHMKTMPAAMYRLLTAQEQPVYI
T9 sequence (P51452 whole entry): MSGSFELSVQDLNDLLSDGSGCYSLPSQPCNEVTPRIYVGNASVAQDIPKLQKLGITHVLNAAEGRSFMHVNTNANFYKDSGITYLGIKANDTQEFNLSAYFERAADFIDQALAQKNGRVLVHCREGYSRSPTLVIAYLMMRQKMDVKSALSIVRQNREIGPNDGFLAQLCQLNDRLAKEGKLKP
Chain of Intestinal-type alkaline phosphatase (Mus musculus, UniProt P24822) (P24822 whole entry): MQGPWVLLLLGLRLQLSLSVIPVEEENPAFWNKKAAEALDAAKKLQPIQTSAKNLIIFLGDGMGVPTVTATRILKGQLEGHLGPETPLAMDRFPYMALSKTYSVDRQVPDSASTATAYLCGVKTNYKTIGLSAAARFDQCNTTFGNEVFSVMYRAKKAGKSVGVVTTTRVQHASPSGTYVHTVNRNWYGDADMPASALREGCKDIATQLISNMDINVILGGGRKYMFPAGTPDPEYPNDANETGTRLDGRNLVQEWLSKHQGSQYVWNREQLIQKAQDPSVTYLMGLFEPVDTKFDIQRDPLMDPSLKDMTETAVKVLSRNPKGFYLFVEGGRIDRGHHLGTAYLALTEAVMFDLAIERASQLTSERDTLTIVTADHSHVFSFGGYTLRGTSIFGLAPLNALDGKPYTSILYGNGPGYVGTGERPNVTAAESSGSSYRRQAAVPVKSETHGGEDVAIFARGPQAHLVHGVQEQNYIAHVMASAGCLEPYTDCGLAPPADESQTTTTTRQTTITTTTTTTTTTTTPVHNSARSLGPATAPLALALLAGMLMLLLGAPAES
Chain of Induced myeloid leukemia cell differentiation protein Mcl-1 (Q07820 whole entry): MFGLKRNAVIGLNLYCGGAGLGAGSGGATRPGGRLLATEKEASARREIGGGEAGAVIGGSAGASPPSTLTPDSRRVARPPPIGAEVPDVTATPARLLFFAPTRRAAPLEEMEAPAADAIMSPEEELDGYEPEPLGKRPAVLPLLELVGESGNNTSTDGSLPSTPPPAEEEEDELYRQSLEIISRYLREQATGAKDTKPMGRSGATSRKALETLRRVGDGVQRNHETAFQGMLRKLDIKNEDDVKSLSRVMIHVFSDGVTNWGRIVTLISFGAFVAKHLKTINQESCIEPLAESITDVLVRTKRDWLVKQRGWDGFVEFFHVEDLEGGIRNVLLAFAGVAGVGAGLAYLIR
Chain of NS3 (A3EZJ3 whole entry): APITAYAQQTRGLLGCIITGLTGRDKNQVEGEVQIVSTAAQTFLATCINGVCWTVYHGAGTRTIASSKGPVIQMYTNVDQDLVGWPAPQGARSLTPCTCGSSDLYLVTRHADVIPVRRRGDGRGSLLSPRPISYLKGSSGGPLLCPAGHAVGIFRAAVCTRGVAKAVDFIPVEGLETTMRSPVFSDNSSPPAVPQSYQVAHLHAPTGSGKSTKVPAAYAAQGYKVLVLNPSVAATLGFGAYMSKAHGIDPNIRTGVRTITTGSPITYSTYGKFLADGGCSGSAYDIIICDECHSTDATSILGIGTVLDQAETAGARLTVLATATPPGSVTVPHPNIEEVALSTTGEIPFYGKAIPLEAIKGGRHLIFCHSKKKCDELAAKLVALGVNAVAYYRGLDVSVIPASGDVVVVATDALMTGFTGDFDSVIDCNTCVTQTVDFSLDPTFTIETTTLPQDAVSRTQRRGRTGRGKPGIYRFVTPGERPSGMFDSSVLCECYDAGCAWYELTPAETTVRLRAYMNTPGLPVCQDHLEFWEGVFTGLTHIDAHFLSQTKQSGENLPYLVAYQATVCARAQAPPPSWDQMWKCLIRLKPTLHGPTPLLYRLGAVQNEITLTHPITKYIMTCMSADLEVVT

For orientation: EC50 means the concentration that produces a half-maximal response. Usually IC50 stands for the concentration at which inhibition is half-maximal. For `COc1ccc(S(=O)(=O)Nc2ccc(O)c(Sc3nnc[nH]3)c2)cc1`, the EC50 in [1] is 79.6 µM (active); in assay [2], 10.4 µM (active); in [3] it was 62.8 µM (active); in assay [4] it was 63.4 µM (active); in assay [5], 8.48 µM (active). On Leucine aminopeptidase, the IC50 is 25 µM (active).

In general, AC50 refers to the midpoint of the concentration-response curve, whichever way the signal moves. As for `Nc1c(C(=O)NC2CC2)sc2nc3c(c(-c4ccco4)c12)CC/C3=C/c1ccco1`, the IC50 is > 71.5 µM (inactive) at Troponin, cardiac muscle; 13.1 µM (active) in assay [7]; 3.99 µM (active) in [8]; 17.2 µM (active) in [10]; 1.04 µM (active) in [11]; 5.48 µM (active) on NS3. Further, in assay [12], the half-maximal inhibitory concentration (IC50) is 54 µM (active). In addition, the AC50 in [6] was 4.71 µM (active); in [9], 6.07 µM (active).

Take `Cc1ccc(NC(=O)CN2C(=O)S/C(=C\c3cccn3-c3cccc(C(=O)O)c3)C2=O)c(C)c1`: the IC50 in assay [13] is 7.9 µM (active); in assay [14], 9.17 µM (active); in assay [15], 1.89 µM (active); in [16], 3.25 µM (active); in assay [17] it was > 54 µM (active). For the same compound, the 50% effective concentration (EC50) in [2] and in assay [5] was > 300 µM (not active) each time.

(Values after ChEMBL document CHEMBL1201862, “PubChem BioAssay data set” (2004).)
